{"source": "patent US20080103118A1", "about": "“COMPOSITION FOR IMPROVING BLOOD CHOLESTEROL LEVELS” (IOMEDIX DEVELOPMENT INTERNATIONAL SRL, priority 2006, published 2008)", "origin": "cited, not measured here", "conditions": "117 individuals, 63 Niacin, 54 placebo"}
{"smiles": "O=C(O)c1cccnc1", "note": "[Niacin, nicotinic acid]", "values": [{"measurement": "high-density lipoprotein cholesterol (HDL-C)", "value": "increase"}, {"measurement": "low-density lipoprotein cholesterol (LDL-C)", "value": "decrease"}, {"measurement": "total cholesterol", "value": "decrease"}, {"measurement": "triglyceride levels", "value": "decrease"}]}
